Earlier results, collected in patent US20220265684A1, “COMPOSITIONS AND METHODS FOR TREATING ULCERATIVE COLITIS” (9 METERS BIOPHARMA, INC., priority 2021, published 2022).

Conditions: after administration of 100 mg (1 tablet); Actarit PI

Q: Which “AUC0-∞” value does the source give for `Nc1ccc(CC(=O)O)cc1` [4-APAA, 4-aminophenylacetic acid] here?
A: 4560 ng·h/mL

Q: And the Cmax?
A: 2240 ng/mL
